According to ChEMBL document CHEMBL3779822, “Indolyl-3-ethanone-α-thioethers: A promising new class of non-toxic antimalarial agents” (Eur J Med Chem, 2016):

Legend:
HeLa = assay: Growth inhibition of human HeLa cells after 48 hrs by resazurin assay; assay type: cell-based
[1] = Selectivity index, ratio if IC50 for human HeLa cells to IC50 for Plasmodium falciparum 3D7; assay type: functional
Plasmodium falciparum = assay: Antiplasmodial activity against Plasmodium falciparum 3D7 infected in human erythrocytes assessed as inhibition of parasite growth after 48 hrs by parasite lactate dehydrogenase assay; assay type: functional, organism-based; conditions: 3D7, 48 h

Row | SMILES | IC50 (HeLa) [µM] | Ratio IC50 [1] | IC50 (Plasmodium falciparum) [µM]
1 | Cn1cc(C(=O)CSc2ccc(Br)cc2)c2ccccc21 | > 500 | 33 | 15
2 | CC[C@H]1CN2CCc3cc(OC)c(OC)cc3[C@@H]2C[C@@H]1C[C@H]1NCCc2cc(OC)c(OC)cc21 [EMETINE] | 0.37 |  | 
3 | O=C(CSc1cccc(Cl)c1)c1c[nH]c2ccccc12 | > 500 | 11 | 44
4 | O=C(CSc1ccc(Br)cc1)c1c[nH]c2cc(Br)ccc12 | > 500 | 2 | 279
5 | O=C(COc1ccc(Cl)cc1)c1c[nH]c2ccccc12 | > 500 | 278 | 1.8
6 | O=C(CSCc1ccc(Br)cc1)c1c[nH]c2ccccc12 | > 500 |  | > 500
7 | O=C(CSc1ccc(Cl)cc1)c1c[nH]c2ccccc12 | > 500 | 357 | 1.4
8 | O=C(CSc1ccc(Br)cc1)c1c[nH]c2cc(Cl)c(F)cc12 | > 500 | 42 | 12
9 | O=C(CNc1ccccc1)c1c[nH]c2ccccc12 | > 500 | 7 | 73
10 | O=C(CSc1ccc(Br)cc1)c1cn(Cc2ccccc2)c2ccccc12 | > 500 | 185 | 2.7
11 | O=C(CSc1ccc(F)cc1)c1c[nH]c2ccccc12 | > 500 | 294 | 1.7
12 | O=C(CSc1ccc(Br)cc1)c1c[nH]c2ccccc12 | > 500 | 385 | 1.3
13 | O=C(CSc1ccc(Br)cc1)c1c[nH]c2ccc(Br)cc12 | > 500 | 4167 | 0.12
14 | O=C(CSc1ccc([N+](=O)[O-])cc1)c1c[nH]c2ccccc12 | > 500 | 2083 | 0.24
15 | O=C(CSc1ccc(Br)cc1)c1c[nH]c2cc(Cl)ccc12 | > 500 | 179 | 2.8

Continued, in another order:

Row | IC50 (HeLa) [µM] | SMILES | Ratio IC50 [1] | IC50 (Plasmodium falciparum) [µM]
16 | > 500 | O=C(CSc1cccc(F)c1)c1c[nH]c2ccccc12 | 128 | 3.9
17 | > 500 | O=C(CSc1cccc(Br)c1)c1c[nH]c2ccccc12 | 5 | 106
18 | > 500 | O=C(CSCc1ccc(F)cc1)c1c[nH]c2ccccc12 | 9 | 58
19 | > 500 | O=C(CSc1ccc(Br)cc1)c1c[nH]c2cc(Br)c(F)cc12 | 26 | 19
20 | 76 | CC(SCC(=O)c1c[nH]c2ccccc12)c1ccccc1 (stereo not drawn) | 1 | 122
21 | > 500 | O=C(CSCc1ccc(Cl)cc1)c1c[nH]c2ccccc12 |  | > 500
22 | > 500 | CC(C)(C)c1ccc(SCC(=O)c2c[nH]c3ccccc23)cc1 | 56 | 8.9
23 | > 500 | O=C(CSc1ccccc1Cl)c1c[nH]c2ccccc12 |  | > 500
24 | > 500 | O=C(CSc1ccc(Br)cc1)c1c[nH]c2ccc(Cl)cc12 | 5556 | 0.09
25 | 35 | O=C(CSCc1cccc(Br)c1)c1c[nH]c2ccccc12 | 3 | 13
26 | 60 | CN(C)c1ccc(SCC(=O)c2c[nH]c3ccccc23)cc1 | 1 | 105
27 | > 500 | Cc1ccccc1SCC(=O)c1c[nH]c2ccccc12 | 42 | 12
28 | > 500 | O=C(CSc1ccc(Br)cc1)c1c[nH]c2c(F)cccc12 | 208 | 2.4
29 | > 500 | O=C(CSCc1ccccc1)c1c[nH]c2ccccc12 | 4 | 131
30 | 16 | O=C(CNc1ccc(Cl)cc1)c1c[nH]c2ccccc12 | 0.6 | 29
31 | > 500 | O=C(CSc1ccc(Br)cc1)c1c[nH]c2cc(F)ccc12 | 385 | 1.3
32 | > 500 | Cc1ccc(SCC(=O)c2c[nH]c3ccccc23)cc1 | 26 | 19
33 | > 500 | O=C(COc1ccccc1)c1c[nH]c2ccccc12 |  | > 500
34 | 284 | O=C(CSc1ccccc1)c1c[nH]c2ccccc12 | 10 | 29
35 | 14 | O=C(CSCCc1ccccc1)c1c[nH]c2ccccc12 | 2 | 7.8
36 | 36 | Nc1ccc(SCC(=O)c2c[nH]c3ccccc23)cc1 | 2 | 20
37 | 56 | O=C(CSc1ccc(Br)cc1)c1c[nH]c2c(I)cccc12 | 1 | 45
38 | 224 | Cc1cc(Br)c2[nH]cc(C(=O)CSc3ccc(Br)cc3)c2c1 | 124 | 1.8
